One compound from ChEMBL document CHEMBL1157288, “Isolation and structure assignment of an iminotetrasaccharide from a cultured filamentous cyanobacterium Anabaena sp” (J Nat Prod, 2006) can be followed below.

The subject of the experiment is Escherichia coli. Nature of the experiment: Inhibition of Escherichia coli beta-glucuronidase at 560 uM.

As usually defined, the inhibition is the percentage by which the read-out fell short of the control. For `CO[C@@H]1[C@@H](O)[C@@H](O[C@@H]2[C@@H]([C@H](C)O)NC[C@@H]2O)O[C@H](CO)[C@H]1O[C@H]1OC[C@H](OC(C)=O)[C@H](OC(C)=O)[C@H]1O[C@H]1O[C@H](C(=O)O)[C@@H](O)[C@H](O)[C@H]1O`, the inhibition turned out to be 50%.
